ChEMBL document CHEMBL1201862, “PubChem BioAssay data set” (2004)
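Five concentrations, 48 hours, 96-well plates. Here, GI50 denotes the concentration required for 50% inhibition of growth.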 Active and inactive are the calls of the source. No stated cut-off is given here; in the data, active = GI50 up to about 1.1 µM and inactive = higher.

Experiments:
Assay in all cases: NCI-60 cell line screen, 48 h
[1] = system: KM12
[2] = system: MDA-MB-231
[3] = system: TK-10
[4] = system: SNB-75
[5] = system: CAKI-1
[6] = system: SK-MEL-5
[7] = system: M14
[8] = system: HCT-15
[9] = system: DU-145
[10] = system: EKVX
[11] = system: SF-295
[12] = system: 786-0
[13] = system: IGROV-1
[14] = system: NCI-H226
[15] = system: RPMI-8226
[16] = system: RXF 393
[17] = system: UACC-257
[18] = system: SW-620
[19] = system: SK-MEL-2
[20] = system: SK-OV-3

Measured: GI50

CO[C@@H]1C[C@H]2[C@@H]3CC[C@H]([C@@H](C)CO)[C@@]3(C)CC[C@@H]2[C@@]2(C)CC[C@H]3C[C@]312
inactive: [1] 19 µM | [2] 28.3 µM | [3] > 100 µM | [4] 74.3 µM | [5] 89.7 µM | [6] 16.7 µM | [7] 23.3 µM | [9] 85.5 µM | [10] 27.2 µM | [11] 30.5 µM | [12] 42.1 µM | [13] 50.9 µM | [14] 24.4 µM | [15] 25 µM | [16] 19.2 µM | [17] 34 µM | [18] 31.9 µM
33.3 µM: [8]

Cc1cc(=O)oc2c(C)c(O)ccc12
> 100 µM: [8]
inactive: [1] > 100 µM | [2] > 100 µM | [4] > 100 µM | [5] 55.6 µM | [19] > 100 µM | [6] > 100 µM | [7] > 100 µM | [9] > 100 µM | [10] > 100 µM | [11] > 100 µM | [12] > 100 µM | [13] > 100 µM | [14] > 100 µM | [15] 62.1 µM | [16] > 100 µM | [17] > 100 µM | [18] > 100 µM

Cc1cn(C2CCC(/C=N\O)O2)c(=O)[nH]c1=O (stereo not drawn)
inactive: [1] > 100 µM | [2] > 100 µM | [4] > 100 µM | [5] > 100 µM | [19] > 100 µM | [6] > 100 µM | [7] > 100 µM | [9] > 100 µM | [10] > 100 µM | [11] > 100 µM | [12] > 100 µM | [13] > 100 µM | [14] > 100 µM | [15] > 100 µM | [16] > 100 µM | [17] > 100 µM | [18] > 100 µM
> 100 µM: [8]

Cc1cc(NS(=O)(=O)c2ccc(NC(NC(=O)OC(C)C)(C(F)(F)F)C(F)(F)F)cc2)nc(C)n1
> 100 µM: [8]
inactive: [1] > 100 µM | [2] > 100 µM | [3] > 100 µM | [4] > 100 µM | [5] > 100 µM | [6] > 100 µM | [7] > 100 µM | [9] > 100 µM | [10] > 100 µM | [11] > 100 µM | [20] > 100 µM | [12] > 100 µM | [13] > 100 µM | [14] > 100 µM | [15] > 100 µM | [16] > 100 µM | [17] > 100 µM | [18] > 100 µM

COC(=O)c1ccccc1/C=C1/Cc2ccccc2C1=O
inactive: [1] 25.2 µM | [2] 44.7 µM | [3] > 100 µM | [4] > 100 µM | [5] 25.8 µM | [6] 18.6 µM | [9] > 100 µM | [10] 63.2 µM | [11] 44.1 µM | [20] > 100 µM | [12] > 10 µM | [13] 27.3 µM | [14] 63.8 µM | [15] 22 µM | [16] 54.6 µM | [17] 24 µM | [18] 28.3 µM
23.4 µM: [8]

Cc1nc(=O)[nH]c(NCCNCCO)c1C(=O)Nc1cccc2cc3ccccc3cc12
> 100 µM: [8]
inactive: [1] > 100 µM | [2] > 100 µM | [3] > 100 µM | [4] > 100 µM | [5] > 100 µM | [19] > 100 µM | [6] > 100 µM | [7] > 100 µM | [9] > 100 µM | [10] > 100 µM | [11] > 100 µM | [12] > 100 µM | [13] > 100 µM | [14] > 100 µM | [15] > 100 µM | [16] > 100 µM | [17] > 100 µM | [18] > 100 µM

CCOC(=O)c1nc2cc(C(F)(F)F)ccc2nc1Oc1ccc(C(=O)OC)cc1
51.5 µM: [8]
inactive: [1] > 100 µM | [2] > 100 µM | [3] > 100 µM | [4] > 100 µM | [5] > 100 µM | [19] > 100 µM | [6] > 100 µM | [7] 64.3 µM | [9] > 100 µM | [10] > 100 µM | [11] > 100 µM | [12] > 100 µM | [13] > 100 µM | [14] > 100 µM | [15] > 100 µM | [16] 85.5 µM | [17] > 100 µM | [18] > 100 µM

C=C(C)C1Cc2cc(C(C)=O)ccc2O1 (stereo not drawn)
> 100 µM: [8]
inactive: [1] > 100 µM | [2] > 100 µM | [3] > 100 µM | [4] > 100 µM | [5] > 100 µM | [19] > 100 µM | [6] > 100 µM | [7] > 100 µM | [9] > 100 µM | [10] > 100 µM | [11] > 100 µM | [20] > 100 µM | [12] > 100 µM | [13] > 100 µM | [14] > 100 µM | [15] > 100 µM | [17] > 100 µM | [18] > 100 µM

Cc1cc(=O)oc2c(CN3CCCCC3)c(O)ccc12
inactive: [2] > 100 µM | [3] > 100 µM | [4] > 100 µM | [5] > 100 µM | [19] > 100 µM | [6] > 100 µM | [7] > 100 µM | [9] > 100 µM | [10] > 100 µM | [11] > 100 µM | [12] > 100 µM | [13] > 100 µM | [14] > 100 µM | [15] > 100 µM | [16] > 100 µM | [17] > 100 µM | [18] > 100 µM
> 100 µM: [8]

CCOC(=O)c1nc2ccccc2nc1NCc1ccc(OC)cc1
> 100 µM: [8]
inactive: [1] 44.6 µM | [2] 99.8 µM | [3] 17 µM | [4] 48.8 µM | [5] > 100 µM | [6] > 100 µM | [9] > 100 µM | [10] > 100 µM | [11] > 100 µM | [20] > 100 µM | [12] > 100 µM | [13] > 100 µM | [14] > 100 µM | [15] > 100 µM | [16] 23.4 µM | [17] > 100 µM | [18] > 100 µM

C[C@]12CC[C@H]3[C@@H](CC=C4C[C@@H](N5CCCC5)CC[C@@]43C)[C@@H]1C[C@H](N1CCCCC1)[C@@H]2O
33.8 µM: [8]
inactive: [1] > 100 µM | [2] > 100 µM | [3] > 100 µM | [4] > 100 µM | [5] > 100 µM | [6] 51.1 µM | [7] 20.3 µM | [9] > 100 µM | [10] > 100 µM | [11] > 100 µM | [20] > 100 µM | [12] 91.8 µM | [13] > 100 µM | [14] > 100 µM | [15] 26.8 µM | [16] > 100 µM | [17] 23.3 µM | [18] > 100 µM
